Source: article PMC5433425 (PeerJ, 2017)
Values joined by “and” are separate entries in the source; they are usually repeats but may differ in a detail not shown here. Identical values can stand only once. Peptide text beside a SMILES is read from it. * marks the point of attachment. βNA = c1ccc2cc(N*)ccc2c1

Test system: E. coli K-12 AG100 (wild-type)
Test: MIC, broth microdilution
Assay type: cell-based
Conditions: Escherichia coli

For `NC(N)=NCCC[C@H](NC(=O)[C@@H](N)Cc1ccccc1)C(=O)Nc1ccc2ccccc2c1` [PAβN] (H-Phe-Arg-βNA), the MIC was > 200 µg/mL and > 385 µM.
